Activity calls are given as the source filed them. No cut-off for these calls is given here.
How the values were obtained:
[1] = biological target: Replicase polyprotein 1a (Severe acute respiratory syndrome-related coronavirus) (UniProt P0C6U8)
[2] = Inhibition of chymotrypsin using N-benzoyl-L-tyrosine ethyl ester as substrate assessed as benzoyl-tyrosine production measured every 10 seconds for 6 mins
[3] = biological target: Protease (Human immunodeficiency virus 1, UniProt Q9YQ12); assay: Inhibition of Human immunodeficiency virus 1 protease preincubated for 10 mins by FRET assay
[4] = biological target: T1, Replicase polyprotein 1a (Severe acute respiratory syndrome-related coronavirus, UniProt P0C6U8)
[5] = biological target: T1, Replicase polyprotein 1a; remark: listed apart in the source
[6] = biological target: T1, Replicase polyprotein 1a; conditions: read-out: Ki(app)
[7] = biological target: T2, Papain (Carica papaya, UniProt P00784); assay: Inhibition of papaya papain using N-alpha-benzoyl-L-arginine-pnitroanilide as substrate after 5 mins
T2 sequence (P00784 whole entry): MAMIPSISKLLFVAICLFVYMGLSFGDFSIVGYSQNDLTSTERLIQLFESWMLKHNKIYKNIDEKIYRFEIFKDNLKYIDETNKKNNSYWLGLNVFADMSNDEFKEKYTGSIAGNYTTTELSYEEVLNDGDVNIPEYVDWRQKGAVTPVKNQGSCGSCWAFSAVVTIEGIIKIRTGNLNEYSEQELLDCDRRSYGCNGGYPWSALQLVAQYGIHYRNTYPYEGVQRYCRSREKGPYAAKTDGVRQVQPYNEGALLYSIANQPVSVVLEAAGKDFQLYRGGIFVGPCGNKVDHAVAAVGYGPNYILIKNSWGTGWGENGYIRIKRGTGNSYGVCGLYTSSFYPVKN

[8] = biological target: Replicase polyprotein 1a (Severe acute respiratory syndrome-related coronavirus) (UniProt P0C6U8); conditions: TDE = time-dependent effect
[9] = biological target: Replicase polyprotein 1a (Severe acute respiratory syndrome-related coronavirus) (UniProt P0C6U8); remark: listed apart in the source
[10] = biological target: T1, Replicase polyprotein 1a; remark: listed apart in the source
[11] = biological target: T1, Replicase polyprotein 1a; remark: listed apart in the source
[12] = biological target: Replicase polyprotein 1a (Severe acute respiratory syndrome-related coronavirus) (UniProt P0C6U8); remark: listed apart in the source
[13] = biological target: Replicase polyprotein 1a (Severe acute respiratory syndrome-related coronavirus) (UniProt P0C6U8); remark: listed apart in the source
[14] = biological target: T3, Papain (Carica papaya) (UniProt P00784); assay: Inhibition of papaya papain using N-alpha-benzoyl-L-arginine-pnitroanilide as substrate at 200 uM after 5 mins
T3 sequence (whole entry): T2 sequence (P00784 whole entry)

[15] = biological target: Replicase polyprotein 1a (Severe acute respiratory syndrome-related coronavirus) (UniProt P0C6U8); conditions: 1 to 100 uM
[16] = biological target: Replicase polyprotein 1a (Severe acute respiratory syndrome-related coronavirus) (UniProt P0C6U8); remark: listed apart in the source
[17] = biological target: Replicase polyprotein 1a (Severe acute respiratory syndrome-related coronavirus) (UniProt P0C6U8); conditions: 200 uM
[18] = Inhibition of chymotrypsin using N-benzoyl-L-tyrosine ethyl ester as substrate assessed as benzoyl-tyrosine production at 200 uM measured every 10 seconds for 6 mins
[19] = biological target: Protease (Human immunodeficiency virus 1) (UniProt Q9YQ12); assay: Inhibition of Human immunodeficiency virus 1 protease at 200 uM preincubated for 10 mins by FRET assay
[20] = biological target: Replicase polyprotein 1a (Severe acute respiratory syndrome-related coronavirus) (UniProt P0C6U8); conditions: 200 uM; remark: listed apart in the source
[21] = biological target: Replicase polyprotein 1a (Severe acute respiratory syndrome-related coronavirus) (UniProt P0C6U8); remark: listed apart in the source

Chain of Protease (Q9YQ12 whole entry): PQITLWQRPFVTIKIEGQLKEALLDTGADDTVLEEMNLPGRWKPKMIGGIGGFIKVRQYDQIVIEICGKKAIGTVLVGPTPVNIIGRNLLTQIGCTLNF
Chain of Protease (Human immunodeficiency virus 1) (Q9YQ12 as listed by the source): as the sequence (Q9YQ12 whole entry) above

SMILES | IC50 [2] [µM] | IC50 [3] [µM] | IC50 [4] [µM] | IC50 [5] [µM] | Ki [6] [µM] | IC50 [7] [µM] | inhibition [8] | inhibition [9] | IC50 [10] [µM] | IC50 [11] [µM] | inhibition [12] | inhibition [13] | inhibition [14] | inhibition [15] | inhibition [16] | further results
C[C@H]1COC2=C1C(=O)C(=O)c1c2ccc2c1CCCC2(C)C [CRYPTOTANSHINONE] | 120 | 69.6 | 10.1 | 0.8 | 9 | 89.8 | tde | Active | 87.6 | 227 | Active | – | – | – | – | inhibition [1]: Dose-dependent effect
Cc1coc2c1C(=O)C(=O)c1c-2ccc2c(C)cccc12 [TANSHINONE I] | 103 | 45.9 | 11.5 | 8.8 | 13.7 | – | tde | Active | 0.7 | 38.7 | Active | Active | inactive | inactive | Dose-dependent effect | –
Cc1coc2c1C(=O)C(=O)c1c-2ccc2c1CCCC2(C)C [TANSHINONE IIA] | 68.3 | 59.2 | 17.1 | 1.6 | 11.2 | 122 | tde | Active | – | 89.1 | Active | Active | – | inactive | Dose-dependent effect | inhibition [17]: inactive
Cc1cccc2c3c(ccc12)C1=C(C(=O)C3=O)[C@@H](C)CO1 [DIHYDROTANSHINONE I] | – | 50.6 | 10.7 | 4.9 | 11.2 | – | tde | Active | 1.2 | 14.4 | Active | Active | inactive | inactive | Dose-dependent effect | inhibition [18]: inactive
Cc1coc2c1C(=O)C(=O)c1c-2ccc2c1CCCC2(C)CO (configuration not stated) [TANSHINONE IIB] | – | – | 18 | 10.7 | 21.6 | – | tde | Active | 52 | 24.8 | Active | Active | inactive | inactive | Dose-dependent effect | inhibition [18]: inactive; inhibition [19]: inactive
O=C(/C=C/c1cc(O)cc2c1[C@H](C(O)O[C@H](Cc1ccc(O)c(O)c1)C(=O)O)[C@@H](c1ccc(O)c(O)c1)O2)O[C@H](Cc1ccc(O)c(O)c1)C(=O)O (some centres not stated) | – | – | – | – | – | – | – | – | – | – | – | – | – | – | – | inhibition [20]: 30%
CC(C)C1=Cc2ccc3c(c2C(=O)C1=O)CCCC3(C)C [MILTIRONE] | 139 | 148 | 78.9 | 30 | 21.5 | 88 | tde | Active | 60.2 | 21.1 | – | Active | – | inactive | Dose-dependent effect | inhibition [21]: Active
COC(=O)[C@@]1(C)CCCc2c1ccc1c2C(=O)C(=O)c2c(C)coc2-1 [METHYL TANSHINONATE] | 124 | 103 | 10.6 | 9.2 | 9.7 | – | tde | Active | – | 21.1 | Active | Active | inactive | inactive | Dose-dependent effect | inhibition [17]: inactive
